PubChem BioAssay AID2060605 (Molecular Pharmacology Branch, DTP, NCI, 2025)

Tested on: 947758-054-R-J2-PDC spheroid growth, percent test/control
Test: Anticancer human tumor 947758-054-R-J2-PDC patient-derived colon adenocarcinoma cell line growth inhibition [CLK]
Conditions: spheroids with HUVEC and MSC; for IC50: curve of first compound; for viability, T/C: stronger effect = lower value
From the text: A high-throughput screen of multi-cell type tumor spheroids was designed to identify active combinations of […] and targeted small molecules. Complex spheroids include a stromal component modeled by human endothelial cells (HUVEC) and fibroblasts modeled by human mesenchymal stem cells (MSCs). The concentration ranges selected for each drug and investigational agent were based upon clinically achievable concentrations if the clinical Cmax of the agent was known.
Compounds. The drugs and investigational agents: cirtuvivint (SM08502; NSC835563), CC-671 (NSC850746), vemurafenib (NSC761431), tapotoclax (NSC804041), sotorasib (NSC818433), adagrasib (NSC831453), MRTX-1133 (NSC836407), BAY2416964 (NSC825713), copanlisib (NSC816437), inavolisib (NSC800729), abemaciclib (NSC768073), osimertinib (NSC779217), entinostat (NSC756642), eltanexor (KPT-8602, NSC794443), venetoclax (NSC766270), ceralasertib (NSC777638), bortezomib (NSC756655), olaparib (NSC753686), talazoparib (NSC767125), alisertib (NSC759677), peposertib (NSC802822), gemcitabine (NSC613327), 5-fluorouracil (NSC19893), SN-38 (NSC673596), oxaliplatin (NSC266046), paclitaxel (NSC125973), and doxorubicin (NSC123127), were obtained from the National Cancer Institute (NCI) Developmental Therapeutics Program Chemical Repository. The FDA-approved anticancer drug set is available from the Developmental Therapeutics Program at https://dtp.cancer.gov/organization/dscb/obtaining/available plates.htm. […] The stock solutions were prepared in dimethyl sulfoxide (DMSO, Sigma-Aldrich, St. Louis, MO, cat. D2650), except for the platinum complexes which were prepared in saline (Quality Biological, Gaithersburg, MD, cat. 114-055-101), at 800-fold the tested concentration and stored at -70 degrees C prior to their use. All drugs and investigational agents were tested over a range starting from a high concentration at or near the clinical Cmax and decreasing in half-log increments. If the clinical Cmax for an agent had not been determined, the highest concentration tested was 10 microM.
Cell Culture. All cells were maintained in an incubator at 37 degrees C and 5% CO2 with 95% humidity. The PDC lines were cultured according to standard operating procedures established by the NCI PDMR. Briefly, all PDCs were thawed and cultured in Matrigel-coated flasks prepared with a working solution of 1X Ham's F-12 nutrient mix, without supplementation (Invitrogen, Waltham, MA, cat. 11765054), 100 U/mL penicillin-streptomycin (Invitrogen, cat. 15140122), and 2.5% Matrigel (Corning Inc., Corning, NY, cat. 354248) for the first three passages. The 947758-054-R-J2-PDC line was cultured in 6B/Colon 1A media, which includes advanced DMEM/F-12 (Thermo Fisher Scientific, cat. 12634028), 10 mM HEPES (Thermo Fisher Scientific, cat. 15630080), 1X GlutaMAX supplement (Thermo Fisher Scientific, cat. 35050061), 0.1 mg/mL primocin (InvivoGen, cat. ant-pm-2), 10% defined fetal bovine serum, heat inactivated (HyClone Laboratories Inc., cat. SH30070.03HI), 1.25 mM N-Acetyl-L-cysteine (Sigma-Aldrich, cat. A9165), 10 mM nicotinamide (Sigma-Aldrich, cat. N0636), 1X B-27 supplement (Thermo Fisher Scientific, cat. 17504044), 1X N-2 supplement (Thermo Fisher Scientific, cat. 17502048), and 10 microM Y-27632 dihydrochloride (Tocris Bioscience, cat. 1254). The 876862-298-R-J1-PDC was cultured in 6E media, which includes all 6B/Colon 1A media components plus 50% L-WRN conditioned media (ATCC, cat. CRL-3276), 50 ng/mL recombinant human EGF recombinant protein (hEGF; Thermo Fisher Scientific, cat. PHG0311), 10 ng/mL recombinant human fibroblast growth factor 10 (hGFG-10; PeproTech, cat. 100-26), 1 ng/mL recombinant human fibroblast growth factor 2 (hFGF-2; PeproTech, cat. 100-18B), and 1 µM prostaglandin E2 (PGE2; Tocris, cat. 2296). The 227483-062-R1-J1-PDC line was cultured in Panc media, containing all 6E components except hFGF-2, with the addition of 500 nM SB-431542 (Selleckchem, cat. S1067) and 10 nM gastrin (Tocris, cat. 3006). […]

[1] = second compound 0.0316 µM, first compound 0.0316 µM
[2] = second compound 0.0316 µM, first compound 0.1 µM
[3] = second compound 0.0316 µM, first compound 0.316 µM
[4] = second compound 0.0316 µM, first compound 1 µM
[5] = second compound 0.0316 µM, first compound 3.16 µM
[6] = second compound 0.0316 µM, first compound 10 µM
[7] = second compound 0.1 µM, first compound 0.0316 µM
[8] = second compound 0.1 µM, first compound 0.1 µM
[9] = second compound 0.1 µM, first compound 0.316 µM
[10] = second compound 0.1 µM, first compound 1 µM
[11] = second compound 0.1 µM, first compound 3.16 µM
[12] = second compound 0.1 µM, first compound 10 µM
[13] = second compound 0.316 µM, first compound 0.0316 µM
[14] = second compound 0.316 µM, first compound 0.1 µM
[15] = second compound 0.316 µM, first compound 0.316 µM
[16] = second compound 0.316 µM, first compound 1 µM
[17] = second compound 0.316 µM, first compound 3.16 µM
[18] = second compound 0.316 µM, first compound 10 µM
[19] = second compound 1 µM, first compound 0.0316 µM
[20] = second compound 1 µM, first compound 0.1 µM
[21] = second compound 1 µM, first compound 0.316 µM
[22] = second compound 1 µM, first compound 1 µM
[23] = second compound 1 µM, first compound 3.16 µM
[24] = second compound 1 µM, first compound 10 µM
[25] = second compound 3.16 µM, first compound 0.0316 µM
[26] = second compound 3.16 µM, first compound 0.1 µM
[27] = second compound 3.16 µM, first compound 0.316 µM
[28] = second compound 3.16 µM, first compound 1 µM
[29] = second compound 3.16 µM, first compound 3.16 µM
[30] = second compound 3.16 µM, first compound 10 µM
[31] = second compound 10 µM, first compound 0.0316 µM
[32] = second compound 10 µM, first compound 0.1 µM
[33] = second compound 10 µM, first compound 0.316 µM
[34] = second compound 10 µM, first compound 1 µM
[35] = second compound 10 µM, first compound 3.16 µM
[36] = second compound 10 µM, first compound 10 µM
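Also: spheroids exposed to compounds for one week before readout.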
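For viability, T/C in this document: 100% = DMSO vehicle control wells.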

`C=C(F)C(=O)N1CCN(c2nc(OCC3CCCN3C)nc3c2CCN(c2cccc4cccc(Cl)c24)C3)CC1CC#N` (stereo unspecified) + CN1CCN(c2cc(C(=O)Nc3cc4cc(-c5cnn(C)c5)ccc4cn3)ccn2)CC1 gave an IC50 (second compound 0.0316 µM) of 6610 nM, an IC50 (second compound 0.1 µM) of 7050 nM and an IC50 (second compound 0.316 µM) of less than 31.6 nM. It also gave an IC50 (second compound 1 µM) of less than 31.6 nM, an IC50 (second compound 3.16 µM) of less than 31.6 nM and an IC50 (second compound 10 µM) of less than 31.6 nM. For the same compound, the viability, T/C [1] was 122%, the viability, T/C [2] was 116% and the viability, T/C [3] was 109%. The viability, T/C [4] was 107%, the viability, T/C [5] was 146% and the viability, T/C [6] was 10.6%. It also gave a viability, T/C [7] of 149%, a viability, T/C [8] of 201% and a viability, T/C [9] of 181%. It also gave a viability, T/C [10] of 220%, a viability, T/C [11] of 154% and a viability, T/C [12] of 4.69%. It also gave a viability, T/C [13] of 4.5%, a viability, T/C [14] of 5.53% and a viability, T/C [15] of 5.34%. The viability, T/C [16] was 6.82%, the viability, T/C [17] was 8.16% and the viability, T/C [18] was 1.5%. It also gave a viability, T/C [19] of 0.18%, a viability, T/C [20] of 1.06% and a viability, T/C [21] of 0.17%. The viability, T/C [22] was 2.25%, the viability, T/C [23] was 0.12% and the viability, T/C [24] was 0.96%. For the same compound, the viability, T/C [25] was 1.29%, the viability, T/C [26] was 0.25% and the viability, T/C [27] was 0.21%. It also gave a viability, T/C [28] of 0.24%, a viability, T/C [29] of 0.14% and a viability, T/C [30] of 0.12%. It also gave a viability, T/C [31] of 1.57%, a viability, T/C [32] of 1.69% and a viability, T/C [33] of 0.29%. The viability, T/C [34] was 0.31%, the viability, T/C [35] was 1.29% and the viability, T/C [36] was 1.41%.

`C=CC(=O)N1CCN(c2nc(=O)n(-c3c(C)ccnc3C(C)C)c3nc(-c4c(O)cccc4F)c(F)cc23)C(C)C1` (stereo unspecified) + CN1CCN(c2cc(C(=O)Nc3cc4cc(-c5cnn(C)c5)ccc4cn3)ccn2)CC1 was tested, and the IC50 (second compound 0.0316 µM) was greater than 10000 nM, the IC50 (second compound 0.1 µM) was greater than 10000 nM and the IC50 (second compound 0.316 µM) was less than 31.6 nM. For the same compound, the IC50 (second compound 1 µM) was less than 31.6 nM, the IC50 (second compound 3.16 µM) was less than 31.6 nM and the IC50 (second compound 10 µM) was less than 31.6 nM. The viability, T/C [1] was 118%, the viability, T/C [2] was 143% and the viability, T/C [3] was 122%. For the same compound, the viability, T/C [4] was 98.4%, the viability, T/C [5] was 113% and the viability, T/C [6] was 99.8%. For the same compound, the viability, T/C [7] was 172%, the viability, T/C [8] was 199% and the viability, T/C [9] was 161%. For the same compound, the viability, T/C [10] was 234%, the viability, T/C [11] was 167% and the viability, T/C [12] was 77.3%. The viability, T/C [13] was 4.67%, the viability, T/C [14] was 7.3% and the viability, T/C [15] was 6.68%. The viability, T/C [16] was 5.29%, the viability, T/C [17] was 3.14% and the viability, T/C [18] was 1.35%. For the same compound, the viability, T/C [19] was 0.18%, the viability, T/C [20] was 3.35% and the viability, T/C [21] was 0.19%. It also gave a viability, T/C [22] of 0.19%, a viability, T/C [23] of 0.18% and a viability, T/C [24] of 0.21%. The viability, T/C [25] was 2.2%, the viability, T/C [26] was 0.99% and the viability, T/C [27] was 0.31%. It also gave a viability, T/C [28] of 0.31%, a viability, T/C [29] of 0.72% and a viability, T/C [30] of 0.51%. For the same compound, the viability, T/C [31] was 0.46%, the viability, T/C [32] was 0.29% and the viability, T/C [33] was 1.59%. It also gave a viability, T/C [34] of 0.39%, a viability, T/C [35] of 0.98% and a viability, T/C [36] of 0.57%.

`COC1C=CCC(C)C(C)S(=O)(=O)NC(=O)c2ccc3c(c2)N(CC2CCC21)CC1(CCCc2cc(Cl)ccc21)CO3` (stereo unspecified) + CN1CCN(c2cc(C(=O)Nc3cc4cc(-c5cnn(C)c5)ccc4cn3)ccn2)CC1 showed an IC50 (second compound 0.0316 µM) of 8020 nM, an IC50 (second compound 0.1 µM) of 8680 nM and an IC50 (second compound 0.316 µM) of less than 31.6 nM. For the same compound, the IC50 (second compound 1 µM) was less than 31.6 nM, the IC50 (second compound 3.16 µM) was less than 31.6 nM and the IC50 (second compound 10 µM) was less than 31.6 nM. It also gave a viability, T/C [1] of 111%, a viability, T/C [2] of 106% and a viability, T/C [3] of 111%. It also gave a viability, T/C [4] of 97%, a viability, T/C [5] of 101% and a viability, T/C [6] of 37.8%. It also gave a viability, T/C [7] of 137%, a viability, T/C [8] of 163% and a viability, T/C [9] of 179%. The viability, T/C [10] was 174%, the viability, T/C [11] was 151% and the viability, T/C [12] was 35.2%. The viability, T/C [13] was 4.59%, the viability, T/C [14] was 2.89% and the viability, T/C [15] was 2.74%. It also gave a viability, T/C [16] of 3.21%, a viability, T/C [17] of 3.47% and a viability, T/C [18] of 6.05%. It also gave a viability, T/C [19] of 1.87%, a viability, T/C [20] of 4.11% and a viability, T/C [21] of 0.16%. It also gave a viability, T/C [22] of 1.58%, a viability, T/C [23] of 1.7% and a viability, T/C [24] of 0.3%. For the same compound, the viability, T/C [25] was 0.35%, the viability, T/C [26] was 0.72% and the viability, T/C [27] was 0.26%. The viability, T/C [28] was 1.14%, the viability, T/C [29] was 0.26% and the viability, T/C [30] was 0.15%. For the same compound, the viability, T/C [31] was 1.19%, the viability, T/C [32] was 3.23% and the viability, T/C [33] was 2.27%. It also gave a viability, T/C [34] of 1.77%, a viability, T/C [35] of 0.61% and a viability, T/C [36] of 1.23%.
